Source: patent publication US9211310B2, “Use of a Chinese medicine composition in preparing medicaments for treating secondary prevention of myocardial infarction” (TASLY PHARMACEUTICAL GROUP CO., LTD, priority 2010, dated 2015)

Test system: patients after acute myocardial infarction
Assay: Life quality, Seattle Angina Questionnaire (SAQ), same clinical trial
Assay type: in vivo, human
Settings: FAS
Excerpt: 3508 patients who were in accordance with the diagnostic standards of AMI for 28 days to 2 years and differentiated as Qi deficiency and blood stagnation syndrome by TCM were studied. 0.5 g Chinese medicine composition prepared by the method of EXAMPLE 1 (Coded as QSYQ) was administrated half an hour after meal, 3 times per day.
There were 19 questions in the Seattle angina questionnaire (SAQ), including 5 parts: physical limitation (PL), anginal stability (AS), anginal frequency (AF), treatment satisfaction (TS) and disease perception (DP). After being given necessary explanation by doctors, the questions were answered independently by patients.
They included the overall survival time, angina pectoris score, TCM symptom score and life quality score, where angina pectoris score, TCM symptom score and life quality score were evaluated at randomization, in 1st, 3rd, 6th, 9th, 12th month after treatment and 18th month after follow-up.
All evaluation results of SAQ were described during the period of observation, and Wilcoxon rank sum test was used for inter-group comparison.
The evaluation results in the SAQ were depicted in different observations, and inter-group comparison was tested by Wilcoxon Rank-sum test.

In the case of `CC(=O)Oc1ccccc1C(=O)O` [Control group, aspirine], the “SAQ 6th question, Mostly satisfied: % of patients” value (3 months after treatment) is reported as “(51.83%)”, the “SAQ 6th question, Mostly satisfied: number of patients” value (3 months after treatment) is reported as 904 and the “SAQ 6th question, Partly satisfied: % of patients” value (3 months after treatment) is reported as “(25.69%)”. The “SAQ 6th question, Partly satisfied: number of patients” value (3 months after treatment) was 448, the “SAQ 7th question, Dissatisfied: % of patients” value (3 months after treatment) was “(0.11%)” and the “SAQ 7th question, Dissatisfied: number of patients” value (3 months after treatment) was 2. For the same compound, the “SAQ 7th question, Highly satisfied: % of patients” value (3 months after treatment) was “(22.68%)”, the “SAQ 7th question, Highly satisfied: number of patients” value (3 months after treatment) was 395 and the “SAQ 7th question, Mostly dissatisfied: % of patients” value (3 months after treatment) was “(1.95%)”. The “SAQ 7th question, Mostly dissatisfied: number of patients” value (3 months after treatment) was 34, the “SAQ 7th question, Mostly satisfied: % of patients” value (3 months after treatment) was “(54.08%)” and the “SAQ 7th question, Mostly satisfied: number of patients” value (3 months after treatment) was 942. The “SAQ 7th question, Partly satisfied: % of patients” value (3 months after treatment) was “(21.18%)”, the “SAQ 7th question, Partly satisfied: number of patients” value (3 months after treatment) was 369 and the “SAQ Question 1-1 Mildly limited, number of patients” value (3 months after treatment) was 26. For the same compound, the “SAQ Question 1-1 Mildly limited, percent of patients” value (3 months after treatment) was “(1.49%)”, the “SAQ Question 1-1 Moderately limited, number of patients” value (3 months after treatment) was 7 and the “SAQ Question 1-1 Moderately limited, percent of patients” value (3 months after treatment) was “(0.40%)”. For the same compound, the “SAQ Question 1-1 Not limited, number of patients” value (3 months after treatment) was 1634, the “SAQ Question 1-1 Not limited, percent of patients” value (3 months after treatment) was “(93.69%)” and the “SAQ Question 1-1 Other reasons, number of patients” value (3 months after treatment) was 4. The “SAQ Question 1-1 Other reasons, percent of patients” value (3 months after treatment) was “(0.23%)”, the “SAQ Question 1-1 Severely limited, number of patients” value (3 months after treatment) was 1 and the “SAQ Question 1-1 Severely limited, percent of patients” value (3 months after treatment) was “(0.06%)”. The “SAQ Question 1-1 Slightly limited, number of patients” value (3 months after treatment) was 72, the “SAQ Question 1-1 Slightly limited, percent of patients” value (3 months after treatment) was “(4.13%)” and the “SAQ Question 1-2 Mildly limited, number of patients” value (3 months after treatment) was 23. For the same compound, the “SAQ Question 1-2 Mildly limited, percent of patients” value (3 months after treatment) was “(1.32%)”, the “SAQ Question 1-2 Moderately limited, number of patients” value (3 months after treatment) was 10 and the “SAQ Question 1-2 Moderately limited, percent of patients” value (3 months after treatment) was “(0.57%)”. The “SAQ Question 1-2 Not limited, number of patients” value (3 months after treatment) was 1603, the “SAQ Question 1-2 Not limited, percent of patients” value (3 months after treatment) was “(91.92%)” and the “SAQ Question 1-2 Other reasons, number of patients” value (3 months after treatment) was 7. For the same compound, the “SAQ Question 1-2 Other reasons, percent of patients” value (3 months after treatment) was “(0.40%)”, the “SAQ Question 1-2 Severely limited, number of patients” value (3 months after treatment) was 0 and the “SAQ Question 1-2 Severely limited, percent of patients” value (3 months after treatment) was “(0.00%)”. The “SAQ Question 1-2 Slightly limited, number of patients” value (3 months after treatment) was 101, the “SAQ Question 1-2 Slightly limited, percent of patients” value (3 months after treatment) was “(5.79%)” and the “SAQ Question 1-6: Mildly limited, patients (%)” value (3 months after treatment) was “(18.23%)”. For the same compound, the “SAQ Question 1-6: Moderately limited, patients (%)” value (3 months after treatment) was “(13.05%)”, the “SAQ Question 1-6: Not limited, patients (%)” value (3 months after treatment) was “(31.45%)” and the “SAQ Question 1-6: Other reasons, patients (%)” value (3 months after treatment) was “(0.92%)”. For the same compound, the “SAQ Question 1-6: Severely limited, patients (%)” value (3 months after treatment) was “(4.14%)”, the “SAQ Question 1-6: Slightly limited, patients (%)” value (3 months after treatment) was “(32.20%)” and the “SAQ Question 1-7: Mildly limited, patients (%)” value (3 months after treatment) was “(23.77%)”. For the same compound, the “SAQ Question 1-7: Moserately limited, patients (%)” value (3 months after treatment) was “(15.07%)”, the “SAQ Question 1-7: Not limited, patients (%)” value (3 months after treatment) was “(13.91%)” and the “SAQ Question 1-7: Other reasons, patients (%)” value (3 months after treatment) was “(3.01%)”. For the same compound, the “SAQ Question 1-7: Severely limited, patients (%)” value (3 months after treatment) was “(15.88%)”, the “SAQ Question 1-7: Slightly limited, patients (%)” value (3 months after treatment) was “(28.35%)” and the “SAQ Question 1-8: Mildly limited, patients (%)” value (3 months after treatment) was “(25.55%)”. For the same compound, the “SAQ Question 1-8: Moderately limited, patients (%)” value (3 months after treatment) was “(17.89%)”, the “SAQ Question 1-8: Not limited, patients (%)” value (3 months after treatment) was “(10.69%)” and the “SAQ Question 1-8: Other reasons, patients (%)” value (3 months after treatment) was “(3.02%)”. For the same compound, the “SAQ Question 1-8: Severely limieted, patients (%)” value (3 months after treatment) was “(21.02%)”, the “SAQ Question 1-8: Slightly limited, patients (%)” value (3 months after treatment) was “(21.84%)” and the “8th question: Dissatisfied, patients (%)” value (6 months after treatment) was “(0.17%)”. For the same compound, the “8th question: Highly satisfied, patients (%)” value (6 months after treatment) was “(20.30%)”, the “8th question: Mostly satisfied, patients (%)” value (6 months after treatment) was “(56.59%)” and the “8th question: Partly satisfied, patients (%)” value (6 months after treatment) was “(20.70%)”. The “9th question: Few, patients (%)” value (6 months after treatment) was “(34.75%)”, the “9th question: Mild, patients (%)” value (6 months after treatment) was “(34.63%)” and the “9th question: Severe, patients (%)” value (6 months after treatment) was “(0.86%)”. The “9th question: Uneffective, patients (%)” value (6 months after treatment) was “(18.12%)”, the “10th question: Dissatisfied, patients (%)” value (6 months after treatment) was “(20.87%)” and the “10th question: Highly satisfied, patients (%)” value (6 months after treatment) was “(4.64%)”. For the same compound, the “10th question: Mostly dissatisfied, patients (%)” value (6 months after treatment) was “(21.56%)”, the “10th question: Mostly satisfied, patients (%)” value (6 months after treatment) was “(26.61%)” and the “10th question: Partly satisfied, patients (%)” value (6 months after treatment) was “(26.32%)”. For the same compound, the “11th question: Continuously worried, patients (%)” value (6 months after treatment) was “(4.42%)”, the “11th question: No worried, patients (%)” value (6 months after treatment) was “(4.93%)” and the “11th question: Occasionally worried, patients (%)” value (6 months after treatment) was “(41.69%)”. For the same compound, the “11th question: Often worried, patients (%)” value (6 months after treatment) was “(14.85%)”, the “11th question: Seldom worried, patients (%)” value (6 months after treatment) was “(34.12%)” and the “SAQ 4th question, 1-2 times per week: % of patients” value (6 months after treatment) was “(17.55%)”. For the same compound, the “SAQ 4th question, 1-2 times per week: number of patients” value (6 months after treatment) was 306 and the “SAQ 4th question, 1-3 times per day: % of patients” value (6 months after treatment) was “(4.70%)”.
